Measured values taken from US11826399B2, “Chlorotoxin agents and uses thereof” (Eisai Inc., priority 2017, dated 2023).

Key:
[1] = Biodistribution after single Carboxylated CTX-Cryptophycin dose in NRP1 WT or KO PC-3 xenografts in SCID mice; assay type: in vivo, mouse; conditions: single 0.6 mg/kg Carboxylated CTX-Cryptophycin IV
Description: Cells used were human prostate cancer cells, PC-3 (ATCC® CRL-1435™) engineered at WuXi AppTec to generate an isogenic pair of cell lines WT (PC-3-sg1-4 WT cells) and KO (PC-3-sg1-9 KO cells) for NRP1. Mice used were female, ˜6 week old, immune compromised NOD. SCID from Charles River laboratories. Identical experiments were performed side by side in the isogenic xenograft models. Drug administration was performed when tumor size reached ˜300 to 500 mm^3. A single dose of Carboxylated CTX-Cryptophycin at 0.6 mg/kg was administered (to mimic dose where differential efficacy was observed) intravenously in the following vehicle: 10% EtOH, 5% Tween80 and 85% saline. Animals were euthanized and whole blood (cardiac puncture) and tumor tissues harvested at predetermined time points from 5 min to 96 h post-dose (n=3 mice per time point). Blood samples were centrifuged to obtain plasma and subsequently stored at −20° C. or lower pending analysis. Tumors were harvested by removing the entire specimen from surrounding tissues. Specimens were immediately rinsed with normal saline solution, blotted dry, then weighed and stored at −20° C. or lower pending analysis. Tumor tissue was cryofractured using the Covaris Cryoprep System (Covaris, Inc.). Once pulverized, samples were lysed in 3:1 (v:w) 1×PBS containing 1× Halt™ Protease Inhibitor Cocktail and 1×EDTA solution (Thermo Scientific, Product No. 78430). Plasma and homogenized tissue samples were extracted via protein precipitation with 3:1 (v:v) methanol:acetonitrile 1:1 (v:v) containing 0.1% acetic acid. […] Pharmacokinetic (PK) parameters were calculated using non-compartmental analysis in C3PO (a proprietary Eisai compound database and pharmacokinetic analysis tool). Mean plasma and tissue concentrations were used to calculate mean PK parameters.

[2] = test system: PC-3 human prostate cancer cells; assay: Co-administration of Cryptophycin Payload with CTX or iRGD in subcutaneous PC-3 xenograft model; assay type: in vivo, mouse; conditions: Cryptophycin Payload alone at 0.4 mg/kg IV
Description: PC-3 human prostate cancer cells (ATCC CRL-1435) were grown in RPMI-1640 medium supplemented with 10% FBS. For inoculation, 2×10^6 PC-3 cancer cells were injected subcutaneously into mice near the right axillary area using a 27-gauge needle in a volume of 0.1 mL. Mice were immune-compromised NU/NU nude females, approximately 6 weeks old from Charles River Labs. Tumors were measured at least twice weekly using calipers and mice were randomized into treatment groups based on tumor size when the average tumor reached approximately 180 mm^3. All treatments were initiated 17 days after tumor inoculation. The experiment included a vehicle-treated group and drug-treated groups (n=5). […]
General health of the mice was monitored and mortality recorded daily. Tumor volume was assessed by caliper (Mitutoyo, Aurora, IL) measurements (mm) using the formula (1×w^2)/2=mm^3, where 1 and w refer to the larger and smaller perpendicular dimensions collected at each measurement. Tumor dimensions were recorded twice per week starting at the initiation of drug treatment. Body weights were recorded twice per week starting on the first day of treatment. Relative body weight was calculated as follows: Relative body weight=(body weight on day of measurement/body weight on first day of treatment). […] The mean±SEM for tumor volume and mean±SEM for relative body weight for each experimental group was calculated. […]

Row | SMILES | Tumor AUC0-96 h of Cryptophycin Metabolite 1 ([1]; NRP1 KO tumors) [pmol·h/g] | Tumor tmax of Cryptophycin Metabolite 1 ([1]; NRP1 KO tumors) [h] | Tumor AUC0-96 h of Cryptophycin Metabolite 1 ([1]; NRP1 WT tumors) [pmol·h/g] | Tumor tmax of Cryptophycin Metabolite 1 ([1]; NRP1 WT tumors) [h] | Antitumor activity (tumor volume) [2]
1 | COc1ccc(CC2NC(=O)C=CCC(C(C)C3OC3c3ccc(CN4CCN(CCC(C)(C)SC)CC4)cc3)OC(=O)C(CC(C)C)NC(=O)C(C)(C)CNC2=O)cc1Cl (centres unmarked) [Cryptophycin Metabolite 1] | 385 | 24 | 1494 | 48 | 
2 | CCCCNC(=O)Cc1ccccc1SSC(C)(C)CCN1CCN(Cc2ccc(C3OC3C(C)C3CC=CC(=O)NC(Cc4ccc(OC)c(Cl)c4)C(=O)NCC(C)(C)C(=O)NC(CC(C)C)C(=O)O3)cc2)CC1 (centres unmarked) [Cryptophycin Payload] |  |  |  |  | significant antitumor activity
